In patent publication US20130023585A1, “Neuraminidase Inhibitors” (TSRL, INC., priority 2010, published 2013):

System: Hong Kong/2369/2009 (H1N1) H275Y oseltamivir resistant
Type: cell-based, influenza virus

Q: CCC(CC)O[C@@H]1C=C(C(=O)O)C[C@H](NC(=N)N)[C@H]1NC(C)=O [GOC, 4-guanidinio oseltamivir carboxylate] was tested. Which “activity against the Oseltamivir resistant strain” value did it give?
A: The value was “remains active”.

Q: What about the EC50 (read-out: 50% effective concentration (EC50)) of the same compound?
A: Its EC50 is 1700 nM.
